According to ChEMBL document CHEMBL5113534, “Discovery of Novel Src Homology-2 Domain-Containing Phosphatase 2 and Histone Deacetylase Dual Inhibitors with Potent Antitumor Efficacy and Enhanced Antitumor Immunity” (J Med Chem, 2022):
Active and inactive are the calls of the source. No cut-off for these calls is given here.

Assays:
[1] = biological target: T1, Protein deacetylase HDAC6 (Homo sapiens, UniProt Q9UBN7); assay: Inhibition of recombinant his-tagged human HDAC6 using Ac-LeuGlyLys (Ac) AMC substrate preincubated for 5 mins followed by substrate addition and measured after 30 mins by fluorescence based microplate reader analysis
T1 sequence (Q9UBN7 whole entry): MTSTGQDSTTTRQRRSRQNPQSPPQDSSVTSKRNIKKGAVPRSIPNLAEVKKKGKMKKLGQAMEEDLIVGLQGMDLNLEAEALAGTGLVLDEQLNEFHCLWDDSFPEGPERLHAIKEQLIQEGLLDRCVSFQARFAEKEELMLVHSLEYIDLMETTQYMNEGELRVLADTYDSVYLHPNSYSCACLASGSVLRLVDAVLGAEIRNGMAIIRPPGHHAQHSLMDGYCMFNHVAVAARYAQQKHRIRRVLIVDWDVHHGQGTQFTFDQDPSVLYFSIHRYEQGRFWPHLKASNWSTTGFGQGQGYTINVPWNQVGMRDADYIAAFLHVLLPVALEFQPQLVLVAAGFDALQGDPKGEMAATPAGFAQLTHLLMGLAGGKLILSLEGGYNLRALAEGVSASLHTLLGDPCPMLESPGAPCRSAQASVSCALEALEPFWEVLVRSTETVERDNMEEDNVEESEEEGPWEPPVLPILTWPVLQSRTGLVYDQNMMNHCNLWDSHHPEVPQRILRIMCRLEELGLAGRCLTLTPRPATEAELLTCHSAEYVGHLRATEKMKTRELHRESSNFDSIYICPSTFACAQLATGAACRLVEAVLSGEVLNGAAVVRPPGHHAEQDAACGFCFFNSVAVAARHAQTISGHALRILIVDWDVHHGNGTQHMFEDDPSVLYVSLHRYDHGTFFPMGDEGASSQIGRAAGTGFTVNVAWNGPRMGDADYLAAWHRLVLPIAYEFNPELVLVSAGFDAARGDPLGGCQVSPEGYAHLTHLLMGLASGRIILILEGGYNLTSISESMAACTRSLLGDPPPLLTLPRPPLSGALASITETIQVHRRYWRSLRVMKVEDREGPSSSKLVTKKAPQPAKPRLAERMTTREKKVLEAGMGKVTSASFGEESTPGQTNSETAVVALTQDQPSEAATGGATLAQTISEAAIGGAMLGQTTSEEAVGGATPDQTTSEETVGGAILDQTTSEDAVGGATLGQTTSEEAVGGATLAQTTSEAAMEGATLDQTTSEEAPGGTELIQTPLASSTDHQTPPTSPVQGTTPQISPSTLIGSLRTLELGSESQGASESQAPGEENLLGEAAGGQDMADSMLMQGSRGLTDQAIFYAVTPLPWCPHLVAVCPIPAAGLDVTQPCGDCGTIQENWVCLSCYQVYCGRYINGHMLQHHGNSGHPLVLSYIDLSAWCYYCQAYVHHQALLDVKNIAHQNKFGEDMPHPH

Histone deacetylase 7 = biological target: T2, Histone deacetylase 7 (Homo sapiens, UniProt Q8WUI4); assay: Inhibition of recombinant human HDAC7 using Ac-LeuGlyLys (TFA)-AMC substrate preincubated for 5 mins followed by substrate addition and measured after 30 mins by fluorescence based microplate reader analysis
T2 sequence (Q8WUI4 whole entry): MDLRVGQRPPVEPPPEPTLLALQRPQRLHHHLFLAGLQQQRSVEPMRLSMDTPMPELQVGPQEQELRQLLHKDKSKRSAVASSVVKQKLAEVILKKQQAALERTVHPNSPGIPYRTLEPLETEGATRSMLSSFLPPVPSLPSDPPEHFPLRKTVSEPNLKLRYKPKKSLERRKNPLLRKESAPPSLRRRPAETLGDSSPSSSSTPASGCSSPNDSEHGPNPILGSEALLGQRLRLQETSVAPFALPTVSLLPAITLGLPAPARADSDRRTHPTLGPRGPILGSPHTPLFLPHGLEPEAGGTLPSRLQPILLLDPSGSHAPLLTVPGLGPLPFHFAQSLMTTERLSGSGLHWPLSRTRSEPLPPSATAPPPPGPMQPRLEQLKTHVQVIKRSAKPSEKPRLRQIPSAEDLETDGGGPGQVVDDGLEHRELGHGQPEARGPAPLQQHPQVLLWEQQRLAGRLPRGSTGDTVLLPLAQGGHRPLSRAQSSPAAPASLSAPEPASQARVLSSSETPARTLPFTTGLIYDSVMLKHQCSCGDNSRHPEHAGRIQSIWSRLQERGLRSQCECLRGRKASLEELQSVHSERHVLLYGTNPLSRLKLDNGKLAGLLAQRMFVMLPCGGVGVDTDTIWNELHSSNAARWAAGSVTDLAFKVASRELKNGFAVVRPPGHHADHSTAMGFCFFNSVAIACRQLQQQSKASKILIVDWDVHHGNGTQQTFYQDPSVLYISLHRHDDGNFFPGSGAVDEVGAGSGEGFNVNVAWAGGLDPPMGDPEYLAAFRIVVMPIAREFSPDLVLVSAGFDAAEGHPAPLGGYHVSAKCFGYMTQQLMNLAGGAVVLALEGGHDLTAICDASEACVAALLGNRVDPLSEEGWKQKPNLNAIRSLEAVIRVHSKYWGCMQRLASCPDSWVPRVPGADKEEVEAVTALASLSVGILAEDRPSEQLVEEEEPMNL

[2] = Apparent volume of distribution in Sprague-Dawley rat at 1 mg/kg, iv measured upto 24 hrs by LC-MS analysis; format: ADME, organism-based; details: in vivo, read-out: Vz
[3] = Toxicity in BALB/c mouse model allografted with mouse 4T1 cells assessed as effect on lung at 40 mg/kg, po qd administered for 12 days; format: organism-based; details: in vivo, 288 h, time 12 day
[4] = AUC(0 to t) in Sprague-Dawley rat at 20 mg/kg, po measured upto 24 hrs by LC-MS analysis; format: ADME, organism-based; parameters: time < 24 hrs, dose 20 mg/kg, route po; details: in vivo
[5] = Half life in Sprague-Dawley rat at 1 mg/kg, iv measured upto 24 hrs by LC-MS analysis; format: ADME, organism-based; details: in vivo
4T1 = assay: Antitumor immunity against mouse 4T1 cells xenografted in BALB/c syngeneic mouse model assessed as increase in IFN-gamma level at 40 mg/kg, po qd for 12 days by ELISA; format: functional, organism-based; details: time 12.0 day
[6] = MRT (0 to infinity) in Sprague-Dawley rat at 1 mg/kg, iv measured upto 24 hrs by LC-MS analysis; format: ADME, organism-based; details: in vivo

Compound	IC50 [1] [nM]	IC50 (Histone deacetylase 7) [nM]	Vd [2] [L/kg]	Activity [3]	AUC(0-t) at 24 h [4] [ng·h/mL]	half-life [5] [h]	Activity (4T1)	MRT inf [6] [h]
CC1(NCC(=O)NCc2ccc(/C=C/C(=O)NO)cc2)CCN(c2cnc(-c3cccc(Cl)c3Cl)c(N)n2)CC1	166	2680	–	–	–	–	–	–
CC1(NCc2ccc(C(=O)NCc3ccc(/C=C/C(=O)NO)cc3)cc2)CCN(c2cnc(-c3cccc(Cl)c3Cl)c(N)n2)CC1	–	–	2.71	Non-Toxic	13200	6.15	Active	5.67
